Assay results as given in patent US20210355066A1 (CymaBay Therapeutics, Inc., priority 2020, published 2021).

Columns and labels:
[1] = crystalline form
Excerpt: A weighed aluminum pan configured as the sample pan was placed on the […] side of the cell.

CYP 2C9 = CYP 2C9 (Homo sapiens, UniProt P11712); conditions: tolbutamide hydroxylation assay; relative to (S)-enantiomer; cited from earlier work
CYP 2C9, sequence (P11712 whole entry, species assumed): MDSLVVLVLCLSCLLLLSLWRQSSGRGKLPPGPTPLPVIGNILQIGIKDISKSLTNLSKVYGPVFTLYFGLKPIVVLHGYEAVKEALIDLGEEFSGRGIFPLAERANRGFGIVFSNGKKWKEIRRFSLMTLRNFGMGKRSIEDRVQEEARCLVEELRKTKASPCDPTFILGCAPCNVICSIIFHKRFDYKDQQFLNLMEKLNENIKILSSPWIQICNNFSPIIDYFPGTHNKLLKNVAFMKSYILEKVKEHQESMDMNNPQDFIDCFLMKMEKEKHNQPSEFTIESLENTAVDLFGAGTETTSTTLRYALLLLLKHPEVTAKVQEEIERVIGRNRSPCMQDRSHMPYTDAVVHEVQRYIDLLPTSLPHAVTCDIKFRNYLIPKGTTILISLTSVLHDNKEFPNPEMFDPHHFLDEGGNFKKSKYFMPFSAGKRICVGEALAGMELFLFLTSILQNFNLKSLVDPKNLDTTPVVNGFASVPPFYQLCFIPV

Molecule | stability to thermal stress [1] | fold less active as an inhibitor of CYP 2C9 than its (S)-enantiomer (CYP 2C9)
2-hydroxy-N,N,N-trimethylethan-1-aminium (2R)-2-(4-chlorophenyl)-2-[3-(trifluoromethyl)phenoxy]acetate [CB-0406 choline salt] | good stability to thermal stress | –
O=C(O)[C@H](Oc1cccc(C(F)(F)F)c1)c1ccc(Cl)cc1 [CB-0406, (2R)-2-(4-chlorophenyl)-2-[3-(trifluoromethyl)phenoxy]acetic acid] | – | approximately 20 fold
